Test results as given in patent US20080199899A1, “Method For Screening Modulators of Mitochondrial Functioning and New Modulators Obtained” (priority 2002, published 2008).
Positions of bridges follow the written chain, without caps; N, C: chain ends. No end group written: not given here.

Tested on: Human umbilical vein endothelial cells (HUVEC)
Experiment: Apoptosis of HUVEC by FACS analysis after 7AAD staining
Format: cell-based
Settings: 5 to 30 μM, 24 to 96 h; FIG. 13
Description: Human umbilical vein endothelial cells were treated with Seq.
HUVEC cells were incubated for 24 to 96 h with 5 or 30 μM of peptide Seq. ID n 5, control peptide, or left untreated. Apoptosis was characterized by FACS analysis after 7AAD staining. A. Dose-response versus control peptide. B. Increasing incubation times with or without 10 μM peptides and staining with 7AAD and detection by FACS analysis.

GG*CRGDMFG*CGGLLFIHFRIGSRHSRIG (GGCRGDMFGCGGLLFIHFRIGSRHSRIG; disulfide 3-10) [SEQ ID N^o 5]
apoptosis of HUVEC (in words): apoptosis induction
